Here are results for two molecules from US20150056702A1, “METHOD AND KIT FOR CULTURING STEM CELLS” (China Medical University, priority 2013, published 2015).

Assay [1] deals with ES cells. As to the kind of experiment: Alkaline phosphatase staining of ES cells. Format: cell-based, mouse. Here is the method:
The following steps were conducted in order to culture ES cells: • (1) preparing a stem cell medium: DMEM+15% heat-inactivated FBS+NEAA (0.1 mM)+L-glutamine (2 mM)+β-mercaptoethanol (0.2 mM); • (2) preparing a BP-containing solution: dissolving BP into DMSO to form a BP-containing solution (100 mg/ml), and storing the solution at −20° C.; • (3) adding different amounts of the BP-containing solution in step (2) into the stem cell medium in step (1) to form different BP-containing mediums, wherein the amount of BP were about 5, 10, 20 or 40 μg per milliliter of the stem cell medium respectively (i.e. the experimental group mediums: BP5, BP10, BP20 and BP40); and • (4) using the BP-containing medium of in step (3) to culture a ES cell (retrieved from the embryos in the blastula stage of 129sv/J mice) at 37° C., 5% CO2 and 95% humidity on the feeder cells provided by Example 1.
The following procedure was conducted in proper order to culture the ES cells: • (1) preparing a stem cell medium: • LIF-containing medium (without BP): DMEM+15% heat-inactivated FBS+NEAA (0.1 mM)+L-glutamine (2 mM)+(3-mercaptoethanol (0.2 mM)+LIF (4 ng/ml); and • control medium (without BP): DMEM+15% heat-inactivated FBS+NEAA (0.1 mM)+L-glutamine (2 mM)+β-mercaptoethanol (0.2 mM); • (2) using the medium in step (1) to culture a ES cell (retrieved from embryos in the blastula stage of 129sv/J mice) at 37° C., 5% CO2 and 95% humidity on the feeder cells provided by Example 1.
Alkaline phosphatase is a marker protein of stem cells. The activity measured by staining could be used to determine if BP can effectively maintain the self-renewal and/or pluripotency of stem cells.
An experimental group medium (BP5, BP10, BP20 or BP40), a LIF-containing medium (without BP) and a control group medium (without BP) were used respectively to culture ES cells in a 6-well culture dish with an initial density of 1×10^4 per well for 72 hours. The medium was removed and the cells were washed two times with PBS. Next, PBS was removed, and 1 ml of 80% ethanol was added into each well to perform the fixation at 4° C. for 2 to 24 hours. Next, ethanol was removed, and then the cells were washed one time with distilled water. The distilled water was added again to soak the cells for 2 to 3 minutes, and then be removed. Next, the cells were soaked with a Tris-HCl buffer (100 mM, pH 8.2 to 8.5) at room temperature for 5 minutes, and then, the buffer was removed. Next, a Leukocyte Alkaline Phosphatase kit (Vector) was used to perform the staining for 20 to 30 minutes, and then the Alkaline Phosphatase Substrate working solution was removed, the cells were soaked and washed by Tris-HCl buffer (100 mM, pH 8.2 to 8.5) and then be observed by a fluorescent microscope to count the number of the AP-positive clones. The undifferentiated ES cells with a higher activity show a red color, while the differentiated ES cells with a lower activity show a weak red color or are even colorless.

Assay [2] deals with Stat3. As to the kind of experiment: Western blot assay, Stat3 protein in ES cells. Conditions: for Stat3 Protein expression level: ES cells, control group = 100%. Format: cell-based, mouse. The source says: According to the known research at present, Jak2 and Stat3 proteins could be phosphorylated to form the active forms, and the Jak2-Stat3 signaling pathway will be activated when Jak2 and Stat3 were phosphorylated.
An experimental group medium (BP5 or BP10), a LIF-containing medium (without BP), and a control group medium (without BP) were used respectively to culture ES cells with an initial density of 1×10^4 per well in a 6-well culture dish. The medium was removed until the cells growth to be about 70 to 80% confluence. The proteins were extracted to conduct the Western blot assay by using rabbit anti-Jak2 antibody (Cell Signaling Technology), mouse anti-phospho-Jak2 antibody (Cell Signaling Technology), rabbit anti-Stat3 antibody (BD) and rabbit anti-phospho-Stat3 antibody (Cell Signaling Technology), to determine whether BP would affect the protein expression levels of the genes in the Jak-Stat3 signaling pathway.
(In general: In western blotting, separated proteins are transferred to a membrane and probed.)

Take `CCCC=C1OC(=O)c2ccccc21` [BP, n-butylidenephthalide]: the AP-positive clones was 91% in assay [1] (BP5 medium (about 5 μg BP/ml), ES cells, 72 hours, control group = 100%); 116% in assay [1] (BP10 medium (about 10 μg BP/ml), ES cells, 72 hours, control group = 100%); 116% in assay [1] (BP20 medium (about 20 μg BP/ml), ES cells, 72 hours, control group = 100%); 117% in assay [1] (BP40 medium (about 40 μg BP/ml), ES cells, 72 hours, control group = 100%); “more AP-positive clones” in assay [1] (BP-containing ES cell medium vs control group (without BP), result in words). Besides, the results for the “Stat3 Protein expression level” value in assay [2] (BP5 medium (about 5 μg BP/ml)) and in assay [2] (BP10 medium (about 10 μg BP/ml)) were 139% and 165%, respectively. For the same molecule, the “total protein expression and phosphorylated protein expression level of Stat3” value in assay [2] (ES cell medium containing BP, result in words) is reported as “increased significantly”.

In assay [1] (LIF-containing medium (LIF 4 ng/ml, without BP), ES cells, 72 hours, control group = 100%), “LIF: multifunctional cell factor used to maintain pluripotency of stem cells; LIF-containing medium (4 ng/ml, without BP) as comparison” came in with an AP-positive clones of 110%. For the same molecule, the “Stat3 Protein expression level” value in assay [2] (LIF-containing medium (LIF 4 ng/ml, without BP)) was determined as 140%.
